Test results taken from ChEMBL document CHEMBL5325468, “Scaffold hopping derived novel benzoxazepinone RIPK1 inhibitors as anti-necroptosis agents” (Bioorg Med Chem, 2023).
pEC50: −log10 of the molar value.

Test system: not listed separately
Assay: Cytotoxicity against human HT-29 cells assessed as reduction in cell viability
Type: toxicity, cell-based

Structure (SMILES)	CC50
CN1C(=O)[C@@H](NC(=O)c2nnc(Cc3ccccc3)[nH]2)COc2ccccc21 [GSK2982772]	> 50 µM
Cc1ccc(C)c(-c2cccc3cc(C(=O)N[C@H]4COc5ccccc5N(C)C4=O)[nH]c23)c1	> 100 µM
CN1C(=O)[C@@H](NC(=O)c2cc3cccc(-c4ccc5ccccc5c4)c3[nH]2)COc2ccccc21	> 100 µM
Cc1ccc(-c2cccc3cc(C(=O)N[C@H]4COc5ccccc5N(C)C4=O)[nH]c23)cc1C	> 100 µM
COc1ccc(-c2cccc3cc(C(=O)N[C@H]4COc5ccccc5N(C)C4=O)[nH]c23)cc1	> 100 µM
COc1cccc(-c2cccc3cc(C(=O)N[C@H]4COc5ccccc5N(C)C4=O)[nH]c23)c1	> 100 µM
COc1ccccc1-c1cccc2cc(C(=O)N[C@H]3COc4ccccc4N(C)C3=O)[nH]c12	> 100 µM
CN1C(=O)[C@@H](NC(=O)c2cc3cccc(-c4cccc(C(F)(F)F)c4)c3[nH]2)COc2ccccc21	> 100 µM
CN1C(=O)[C@@H](NC(=O)c2cc3cccc(-c4ccccc4C(F)(F)F)c3[nH]2)COc2ccccc21	> 100 µM
CN1C(=O)[C@@H](NC(=O)c2cc3cccc(-c4cccc(-c5ccccc5)c4)c3[nH]2)COc2ccccc21	> 100 µM
CN1C(=O)[C@@H](NC(=O)c2cc3cccc(-c4cccc(F)c4)c3[nH]2)COc2ccccc21	> 100 µM
Cc1cccc(-c2cccc3cc(C(=O)N[C@H]4COc5ccccc5N(C)C4=O)[nH]c23)c1C	> 100 µM
Cc1cccc(-c2cccc3cc(C(=O)N[C@H]4COc5ccccc5N(C)C4=O)[nH]c23)c1	> 100 µM
CN1C(=O)[C@@H](NC(=O)c2cc3cccc(-c4ccccc4-c4ccccc4)c3[nH]2)COc2ccccc21	> 100 µM
Cc1cccc(C)c1-c1cccc2cc(C(=O)N[C@H]3COc4ccccc4N(C)C3=O)[nH]c12	> 100 µM

Test system: HT-29
Assay: Anti-necroptotic activity against TSZ induced necroptosis in human HT-29 cells preincubated for 12 hrs followed by TSZ addition by CellTiter-Glo luminescent cell viability assay
Type: functional, cell-based

Structure (SMILES)	pEC50
Cc1ccc(C)c(-c2cccc3cc(C(=O)N[C@H]4COc5ccccc5N(C)C4=O)[nH]c23)c1	5.69
CN1C(=O)[C@@H](NC(=O)c2cc3cccc(-c4ccc5ccccc5c4)c3[nH]2)COc2ccccc21	4.74
Cc1ccc(-c2cccc3cc(C(=O)N[C@H]4COc5ccccc5N(C)C4=O)[nH]c23)cc1C	5.78
COc1ccc(-c2cccc3cc(C(=O)N[C@H]4COc5ccccc5N(C)C4=O)[nH]c23)cc1	5.42
COc1cccc(-c2cccc3cc(C(=O)N[C@H]4COc5ccccc5N(C)C4=O)[nH]c23)c1	6.89
COc1ccccc1-c1cccc2cc(C(=O)N[C@H]3COc4ccccc4N(C)C3=O)[nH]c12	6.11
CN1C(=O)[C@@H](NC(=O)c2cc3cccc(-c4cccc(C(F)(F)F)c4)c3[nH]2)COc2ccccc21	5.69
CN1C(=O)[C@@H](NC(=O)c2cc3cccc(-c4ccccc4C(F)(F)F)c3[nH]2)COc2ccccc21	6.79
CN1C(=O)[C@@H](NC(=O)c2cc3cccc(-c4cccc(-c5ccccc5)c4)c3[nH]2)COc2ccccc21	< 5.00
CN1C(=O)[C@@H](NC(=O)c2cc3cccc(-c4cccc(F)c4)c3[nH]2)COc2ccccc21	7.02
Cc1cccc(-c2cccc3cc(C(=O)N[C@H]4COc5ccccc5N(C)C4=O)[nH]c23)c1C	6.52
Cc1cccc(-c2cccc3cc(C(=O)N[C@H]4COc5ccccc5N(C)C4=O)[nH]c23)c1	6.57
CN1C(=O)[C@@H](NC(=O)c2cc3cccc(-c4ccccc4-c4ccccc4)c3[nH]2)COc2ccccc21	< 5.00
Cc1cccc(C)c1-c1cccc2cc(C(=O)N[C@H]3COc4ccccc4N(C)C3=O)[nH]c12	5.83
